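Interpolation was linear, between the two tested concentrations surrounding the appropriate level; five concentrations were tested over 48 hours in 96-well plates. Definition used: TGI = concentration required for complete inhibition of growth.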
Tests used:
Assay in all cases: inhibition of tumour cell growth, NCI panel, 48 h
SNB-19 CNS = tested on: SNB-19 CNS
CCRF-CEM leukemia = tested on: CCRF-CEM leukemia
OVCAR-3 ovarian = tested on: OVCAR-3 ovarian
UACC-62 melanoma = tested on: UACC-62 melanoma
PC-3 prostate = tested on: PC-3 prostate
SK-OV-3 ovarian = tested on: SK-OV-3 ovarian
A498 renal = tested on: A498 renal
SK-MEL-28 melanoma = tested on: SK-MEL-28 melanoma
DU-145 prostate = tested on: DU-145 prostate
OVCAR-8 ovarian = tested on: OVCAR-8 ovarian
HCT-116 colon = tested on: HCT-116 colon
UACC-257 melanoma = tested on: UACC-257 melanoma
CAKI-1 renal = tested on: CAKI-1 renal
ACHN renal = tested on: ACHN renal
COLO 205 colon = tested on: COLO 205 colon
SNB-75 CNS = tested on: SNB-75 CNS
786-0 renal = tested on: 786-0 renal
SF-539 CNS = tested on: SF-539 CNS
MOLT-4 leukemia = tested on: MOLT-4 leukemia
MDA-MB-435 = tested on: MDA-MB-435
K-562 leukemia = tested on: K-562 leukemia
NCI-H23 lung = tested on: NCI-H23 lung
T-47D breast = tested on: T-47D breast
A549 NSCLC = tested on: A549 NSCLC
SK-MEL-2 melanoma = tested on: SK-MEL-2 melanoma
RPMI-8226 leukemia = tested on: RPMI-8226 leukemia
HL-60(TB) leukemia = tested on: HL-60(TB) leukemia
HOP-62 NSCLC = tested on: HOP-62 NSCLC
UO-31 renal = tested on: UO-31 renal
NCI-H226 lung = tested on: NCI-H226 lung
MALME-3M melanoma = tested on: MALME-3M melanoma
NCI-H522 lung = tested on: NCI-H522 lung
TK-10 renal = tested on: TK-10 renal
OVCAR-4 ovarian = tested on: OVCAR-4 ovarian
HS 578T breast = tested on: HS 578T breast
M14 melanoma = tested on: M14 melanoma
SN12C renal = tested on: SN12C renal
HCC-2998 colon = tested on: HCC-2998 colon
MDA-MB-231 breast = tested on: MDA-MB-231 breast
SK-MEL-5 melanoma = tested on: SK-MEL-5 melanoma
OVCAR-5 ovarian = tested on: OVCAR-5 ovarian
MDA-N = tested on: MDA-N
HCT-15 colon = tested on: HCT-15 colon
SF-295 CNS = tested on: SF-295 CNS
IGROV1 ovarian = tested on: IGROV1 ovarian
RXF 393 renal = tested on: RXF 393 renal
LOX IMVI melanoma = tested on: LOX IMVI melanoma
BT-549 breast = tested on: BT-549 breast
MCF7 breast = tested on: MCF7 breast
KM12 colon = tested on: KM12 colon
U251 CNS = tested on: U251 CNS
SF-268 CNS = tested on: SF-268 CNS
SR leukemia = tested on: SR leukemia
HT29 colon = tested on: HT29 colon
EKVX NSCLC = tested on: EKVX NSCLC
NCI-H460 lung = tested on: NCI-H460 lung
SW-620 colon = tested on: SW-620 colon
HOP-92 NSCLC = tested on: HOP-92 NSCLC
NCI/ADR-RES ovarian = tested on: NCI/ADR-RES ovarian

## COc1cc(CCCOC(=O)/C=C/c2ccc(O)c(O)c2)cc(O)c1O
SNB-19 CNS
  TGI: > 100 µM
CCRF-CEM leukemia
  TGI: > 100 µM
OVCAR-3 ovarian
  TGI: > 100 µM
UACC-62 melanoma
  TGI: 85.1 µM
PC-3 prostate
  TGI: > 100 µM
SK-OV-3 ovarian
  TGI: > 100 µM
A498 renal
  TGI: > 100 µM
SK-MEL-28 melanoma
  TGI: > 100 µM
DU-145 prostate
  TGI: > 100 µM
OVCAR-8 ovarian
  TGI: > 100 µM
HCT-116 colon
  TGI: 34.9 µM
UACC-257 melanoma
  TGI: > 100 µM
CAKI-1 renal
  TGI: > 100 µM
ACHN renal
  TGI: > 100 µM
COLO 205 colon
  TGI: > 100 µM
SNB-75 CNS
  TGI: > 100 µM
786-0 renal
  TGI: > 100 µM
SF-539 CNS
  TGI: 90.2 µM
MOLT-4 leukemia
  TGI: > 100 µM
MDA-MB-435
  TGI: > 100 µM
K-562 leukemia
  TGI: > 100 µM
NCI-H23 lung
  TGI: > 100 µM
T-47D breast
  TGI: 74.6 µM
A549 NSCLC
  TGI: > 100 µM
SK-MEL-2 melanoma
  TGI: > 100 µM
RPMI-8226 leukemia
  TGI: > 100 µM
HL-60(TB) leukemia
  TGI: 84.1 µM
HOP-62 NSCLC
  TGI: > 100 µM
UO-31 renal
  TGI: > 100 µM
NCI-H226 lung
  TGI: > 100 µM
MALME-3M melanoma
  TGI: > 100 µM
NCI-H522 lung
  TGI: 29.2 µM
TK-10 renal
  TGI: > 100 µM
OVCAR-4 ovarian
  TGI: > 100 µM
HS 578T breast
  TGI: > 100 µM
M14 melanoma
  TGI: > 100 µM
SN12C renal
  TGI: > 100 µM
HCC-2998 colon
  TGI: > 100 µM
MDA-MB-231 breast
  TGI: 91.7 µM
SK-MEL-5 melanoma
  TGI: > 100 µM
OVCAR-5 ovarian
  TGI: > 100 µM
MDA-N
  TGI: 53.7 µM
HCT-15 colon
  TGI: > 100 µM
SF-295 CNS
  TGI: > 100 µM
IGROV1 ovarian
  TGI: > 100 µM
RXF 393 renal
  TGI: > 100 µM
LOX IMVI melanoma
  TGI: 45.6 µM
BT-549 breast
  TGI: > 100 µM
MCF7 breast
  TGI: 69.4 µM
KM12 colon
  TGI: > 100 µM
U251 CNS
  TGI: > 100 µM
SF-268 CNS
  TGI: 84.5 µM
SR leukemia
  TGI: > 100 µM
HT29 colon
  TGI: 98.7 µM
EKVX NSCLC
  TGI: > 100 µM
NCI-H460 lung
  TGI: > 100 µM
SW-620 colon
  TGI: 35.9 µM

## COC(=O)C(O)P(=O)(OC)OC (stereo not given)
SNB-19 CNS
  TGI: > 100 µM
OVCAR-3 ovarian
  TGI: > 100 µM
UACC-62 melanoma
  TGI: > 100 µM
PC-3 prostate
  TGI: > 100 µM
SK-OV-3 ovarian
  TGI: > 100 µM
A498 renal
  TGI: > 100 µM
SK-MEL-28 melanoma
  TGI: > 100 µM
DU-145 prostate
  TGI: > 100 µM
HOP-92 NSCLC
  TGI: > 100 µM
OVCAR-8 ovarian
  TGI: > 100 µM
HCT-116 colon
  TGI: > 100 µM
UACC-257 melanoma
  TGI: > 100 µM
CAKI-1 renal
  TGI: > 100 µM
ACHN renal
  TGI: > 100 µM
COLO 205 colon
  TGI: > 100 µM
786-0 renal
  TGI: > 100 µM
MOLT-4 leukemia
  TGI: > 100 µM
MDA-MB-435
  TGI: > 100 µM
K-562 leukemia
  TGI: > 100 µM
NCI-H23 lung
  TGI: > 100 µM
T-47D breast
  TGI: > 100 µM
A549 NSCLC
  TGI: > 100 µM
SK-MEL-2 melanoma
  TGI: > 100 µM
RPMI-8226 leukemia
  TGI: > 100 µM
HL-60(TB) leukemia
  TGI: > 100 µM
HOP-62 NSCLC
  TGI: > 100 µM
UO-31 renal
  TGI: > 100 µM
NCI-H226 lung
  TGI: > 100 µM
MALME-3M melanoma
  TGI: > 100 µM
NCI-H522 lung
  TGI: > 100 µM
OVCAR-4 ovarian
  TGI: > 100 µM
HS 578T breast
  TGI: > 100 µM
M14 melanoma
  TGI: > 100 µM
SN12C renal
  TGI: > 100 µM
MDA-MB-231 breast
  TGI: > 100 µM
SK-MEL-5 melanoma
  TGI: > 100 µM
OVCAR-5 ovarian
  TGI: > 100 µM
MDA-N
  TGI: > 100 µM
HCT-15 colon
  TGI: > 100 µM
SF-295 CNS
  TGI: > 100 µM
IGROV1 ovarian
  TGI: > 100 µM
RXF 393 renal
  TGI: > 100 µM
LOX IMVI melanoma
  TGI: > 100 µM
BT-549 breast
  TGI: > 100 µM
MCF7 breast
  TGI: > 100 µM
KM12 colon
  TGI: > 100 µM
U251 CNS
  TGI: > 100 µM
NCI/ADR-RES ovarian
  TGI: > 100 µM
SF-268 CNS
  TGI: > 100 µM
SR leukemia
  TGI: > 100 µM
HT29 colon
  TGI: > 100 µM
EKVX NSCLC
  TGI: > 100 µM
SW-620 colon
  TGI: > 100 µM

Reference: PubChem BioAssay (NCI)
